Measurements taken from US20230346827A1 (priority 2020, published 2023).
Marks after values point to notes of the source that are not given here.

Legend:
rats subjected to sTBI = assay: sTBI rats, LMW-DS 15 mg/kg s.c.: HPLC of brain free amino acids (Example 3); format: in vivo, rat
[1] = test system: HUVEC and M1 macrophages + Zymosan (TLR2 ligand); assay: BioMAP Mphg system; format: cell-based, human; settings: annotated relative to vehicle controls
Text: Cell types and stimuli used in each system are as follows: 3C system [HUVEC + (IL-1β, TNFα and IFNy)], 4H system [HUVEC + (IL-4 and histamine)], LPS system [PBMC and HUVEC + LPS (TLR4 ligand)], SAg system [PBMC and HUVEC + TCR ligands], BT system [CD19+ B cells and PBMC + (α-IgM and TCR ligands)], BF4T system [bronchial epithelial cells and HDFn + (TNFα and IL-4)], BE3C system [bronchial epithelial cells + (IL-1β, TNFα and IFNy)], CASM3C system [coronary artery smooth muscle cells + (IL-1 β, TNFα and IFNy)], HDF3CGF system [HDFn + (IL-1β, TNFα, IFNy, EGF, bFGF and PDGF-BB)], KF3CT system [keratinocytes and HDFn + (IL-1β, TNFα, IFNy and TGFβ)], MyoF system [differentiated lung myofibroblasts + (TNFα and TGFβ)] and Mphg system [HUVEC and M1 macrophages + Zymosan (TLR2 ligand)].
Systems are derived from either single cell types or co-culture systems. Adherent cell types are cultured in 96 or 384-well plates until confluence, followed by the addition of PBMC (SAg and LPS systems). […] Soluble factors from supernatants are quantified using either HTRF® detection, bead-based multiplex immunoassay or capture ELISA. Overt adverse effects of test agents on cell proliferation and viability (cytotoxicity) are detected by sulforhodamine B (SRB) staining, for adherent cells, and alamarBlue® reduction for cells in suspension. […]

human PBMC = assay: Stimulated IL-6 release from human PBMC (ELISA); format: cell-based; settings: 24 h
Method: Peripheral blood mononuclear cells (PBMC) were isolated from healthy donors through Ficoll-Paque PLUS (GE Healthcare; 11778538) density centrifugation. PBMC were cultured at 2×10^5 cells/well in the absence (unstimulated PBS vehicle controls) or presence of stimulation (LPS, peptidoglycan, pokeweed mitogen, PHA-L, CpG + IL-15, or Cytostim) in the absence (vehicle) or presence of LMW-DS (Tikomed AB, Viken, Sweden, WO 2016/076780) at three concentrations; 60 µg/ml, 200 µg/ml and 600 µg/ml for 24 hours at 37° C., 5% CO2. Following centrifugation, cell culture supernatants were removed and stored at -20° C. awaiting analysis for IL-6 by ELISA. Levels of IL-6 were quantified in the supernatant by ELISA (R&D systems; DY206) according to manufacturer’s instructions.

[2] = Acute phase 1: drug 30 min, sacrifice 2 d post-TBI
[3] = Acute phase 2: drug 30 min, sacrifice 7 d post-TBI
[4] = Chronic phase: drug 3 d, sacrifice 7 d post-TBI

Substance: sodium salt of dextran sulfate [LMW-DS]
- ALA (rats subjected to sTBI; [2]): 0.50±0.12^a µmol/g (w.w.)
- ARG (rats subjected to sTBI; [2]): 0.13±0.02^b,d µmol/g (w.w.)
- ASN (rats subjected to sTBI; [2]): 0.12±0.02^i µmol/g (w.w.)
- ASP (rats subjected to sTBI; [2]): 2.40±0.56^d,i µmol/g (w.w.)
- CITR (rats subjected to sTBI; [2]): 0.018 ± 0.004 µmol/g (w.w.)
- GABA (rats subjected to sTBI; [2]): 1.43±0.25^a µmol/g (w.w.)
- GLN (rats subjected to sTBI; [2]): 4.78±1.09^a µmol/g (w.w.)
- GLU (rats subjected to sTBI; [2]): 9.81±1.66^i µmol/g (w.w.)
- GLY (rats subjected to sTBI; [2]): 0.83±0.25^a,c µmol/g (w.w.)
- HIS (rats subjected to sTBI; [2]): 0.068±0.015^b µmol/g (w.w.)
- L-Cystat (rats subjected to sTBI; [2]): 0.185±0.031^b,c,i µmol/g (w.w.)
- MET (rats subjected to sTBI; [2]): 0.016±0.005^d,j µmol/g (w.w.)
- SAH (rats subjected to sTBI; [2]): 0.033±0.008^b,c,j µmol/g (w.w.)
- SER (rats subjected to sTBI; [2]): 0.88±0.25^a µmol/g (w.w.)
- TAU (rats subjected to sTBI; [2]): 4.86±00.85^b µmol/g (w.w.)
- THR (rats subjected to sTBI; [2]): 0.92±0.29^a µmol/g (w.w.)
- TYR (rats subjected to sTBI; [2]): 0.15 ± 0.03 µmol/g (w.w.)
- VAL (rats subjected to sTBI; [2]): 0.042 ± 0.011 µmol/g (w.w.)
- ALA (rats subjected to sTBI; [3]): 0.52±0.24^a,e µmol/g (w.w.)
- ARG (rats subjected to sTBI; [3]): 0.16 ± 0.03 µmol/g (w.w.)
- ASN (rats subjected to sTBI; [3]): 0.13±0.03^i µmol/g (w.w.)
- ASP (rats subjected to sTBI; [3]): 2.94±0.98^f,j µmol/g (w.w.)
- CITR (rats subjected to sTBI; [3]): 0.018 ± 0.008 µmol/g (w.w.)
- GABA (rats subjected to sTBI; [3]): 1.60±0.24^a µmol/g (w.w.)
- GLN (rats subjected to sTBI; [3]): 3.66 ± 0.41 µmol/g (w.w.)
- GLU (rats subjected to sTBI; [3]): 9.93±1.56^e,i µmol/g (w.w.)
- GLY (rats subjected to sTBI; [3]): 0.71±0.16^f,i µmol/g (w.w.)
- HIS (rats subjected to sTBI; [3]): 0.055 ± 0.019 µmol/g (w.w.)
- L-Cystat (rats subjected to sTBI; [3]): 0.173±0.038^b,f,i µmol/g (w.w.)
- MET (rats subjected to sTBI; [3]): 0.022±0.006^b,e,i µmol/g (w.w.)
- SAH (rats subjected to sTBI; [3]): 0.026±0.010^f,i µmol/g (w.w.)
- SER (rats subjected to sTBI; [3]): 0.71±0.28^b µmol/g (w.w.)
- TAU (rats subjected to sTBI; [3]): 3.80 ± 1.19 µmol/g (w.w.)
- THR (rats subjected to sTBI; [3]): 0.66 ± 0.23 µmol/g (w.w.)
- TYR (rats subjected to sTBI; [3]): 0.172±0.046^b,f µmol/g (w.w.)
- VAL (rats subjected to sTBI; [3]): 0.057 ± 0.017 µmol/g (w.w.)
- ALA (rats subjected to sTBI; [4]): 0.57±0.28^a,e µmol/g (w.w.)
- ARG (rats subjected to sTBI; [4]): 0.14 ± 0.02 µmol/g (w.w.)
- ASN (rats subjected to sTBI; [4]): 0.18±0.02^a µmol/g (w.w.)
- ASP (rats subjected to sTBI; [4]): 4.46±0.70^a,f µmol/g (w.w.)
- CITR (rats subjected to sTBI; [4]): 0.020 ± 0.006 µmol/g (w.w.)
- GABA (rats subjected to sTBI; [4]): 1.85±0.65^a µmol/g (w.w.)
- GLN (rats subjected to sTBI; [4]): 3.98 ± 0.34 µmol/g (w.w.)
- GLU (rats subjected to sTBI; [4]): 13.58±1.28^a µmol/g (w.w.)
- GLY (rats subjected to sTBI; [4]): 1.05±0.13^a,f µmol/g (w.w.)
- HIS (rats subjected to sTBI; [4]): 0.047 ± 0.021 µmol/g (w.w.)
- L-Cystat (rats subjected to sTBI; [4]): 0.26±0.05^a,f µmol/g (w.w.)
- MET (rats subjected to sTBI; [4]): 0.009±0.004^b µmol/g (w.w.)
- SAH (rats subjected to sTBI; [4]): 0.050±0.013^a µmol/g (w.w.)
- SER (rats subjected to sTBI; [4]): 0.93±0.27^a,e µmol/g (w.w.)
- TAU (rats subjected to sTBI; [4]): 4.49±0.43^a µmol/g (w.w.)
- THR (rats subjected to sTBI; [4]): 0.75±0.24^a,e µmol/g (w.w.)
- TYR (rats subjected to sTBI; [4]): 0.21±0.05^f µmol/g (w.w.)
- VAL (rats subjected to sTBI; [4]): 0.040±0.016^b µmol/g (w.w.)
- glutamate excitotoxicity marker (rats subjected to sTBI; LMW-DS injected at 3 days after sTBI): no efficacy
- increase in glutamate (GLU) induced by sTBI (rats subjected to sTBI; drug administered early post-injury (30 min following sTBI)): remarkable inhibition
- Increased biomarker activity [1]: IL-8, CD69
- IL-6 release (human PBMC; CpG 0.2 µM + IL-15, LMW-DS 60-600 µg/ml): not generally impacted
- IL-6 release (human PBMC; Cytostim 10 µl/ml, LMW-DS 60-600 µg/ml): not generally impacted
- IL-6 release (human PBMC; LPS 0.01 ng/ml, LMW-DS 60, 200, 600 µg/ml): concentration dependent and statistically significant reduction
- IL-6 release (human PBMC; PHA-L 1.0 µg/ml, LMW-DS 60-600 µg/ml): inhibited significantly in a concentration-dependent manner
- IL-6 release (human PBMC; higher concentration of CpG (1.0 µM) + IL-15, LMW-DS 60-600 µg/ml): no general impact
- IL-6 release (human PBMC; higher concentration of Cytostim (30 µl/ml), LMW-DS 60-600 µg/ml): no general impact
- IL-6 release (human PBMC; peptidoglycan 30 ng/ml, LMW-DS 60-600 µg/ml): little evidence
- IL-6 release (human PBMC; pokeweed mitogen 1.0 µg/ml, LMW-DS 60-600 µg/ml): not impacted generally
